Measurements published in US20160022714A1, “O-GLCNACYLATION TREATMENT FOR ISCHEMIC BRAIN INJURY” (THE RESEARCH FOUNDATION FOR MENTAL HYGIENE, INC., priority 2014, published 2016).
Entries after “also recorded” stand apart in the source; their conditions may differ.

Columns and labels:
[1] = test system: MCAO mouse model (cerebral ischemia-reperfusion injury); experiment: Scores of motor deficits (5-point neurological scoring) after MCAO for 2 hrs and reperfusion for 1 hr; type: in vivo; settings: vs. saline
[2] = test system: O-GlcNAcylation of brain proteins; experiment: Western blots for O-GlcNAcylation of brain (striatum) homogenates from drug-treated mice 2 hrs after MCAO; type: in vivo, mouse; settings: for brain O-GlcNAcylation level (change): mice treated prior to ischemia: DON 2.6 μg/mouse, glucosamine 10 mg/mouse, thiamet-G 160 μg/mouse, brain samples 2 hrs after ischemic insult
[3] = test system: MCAO mouse model (cerebral ischemia-reperfusion injury); experiment: Brain infarct size by TTC staining after MCAO for 2 hrs followed by reperfusion for 24 hrs; type: in vivo; settings: vs. saline; for infarct size / ischemia-induced brain damage: DON 2.6 μg/mouse, glucosamine 10 mg/mouse, thiamet-G 160 μg/mouse prior to ischemia, 24 hrs after ischemia-reperfusion
[4] = DON 2.6 μg/mouse, glucosamine 10 mg/mouse, thiamet-G 160 μg/mouse prior to ischemia, one hour after ischemia-reperfusion

Structure (SMILES): [N-]=[N+]=CC(=O)CC[C@H](N)C(=O)O [DON, 6-diazo-5-oxonorleucine]
- motor deficits [1, 4]: aggravated; also recorded: increased
- brain O-GlcNAcylation level (change) [2]: reduction; also recorded: reduced
- infarct size / ischemia-induced brain damage [3]: aggravated; also recorded: increased

Structure (SMILES): N[C@H]1C(O)O[C@H](CO)[C@@H](O)[C@@H]1O (stereo partly shown) [glucosamine]
- motor deficits [1, 4]: ameliorated; also recorded: reduced
- brain O-GlcNAcylation level (change) [2]: moderate elevation
- infarct size / ischemia-induced brain damage [3]: ameliorated; also recorded: reduced

Structure (SMILES): CCN=C1N[C@@H]2[C@@H](O)[C@H](O)[C@@H](CO)O[C@@H]2S1 [thiamet-G]
- motor deficits [1, 4]: more severe; also recorded: worsened
- motor deficits ([1]; thiamet-G 0.1 μg/mouse, icy injection, MCAO 2 hrs, reperfusion 1 hr): reduced
- brain O-GlcNAcylation level (change) [2]: elevation
- elevation of O-GlcNAcylation ([2]; thiamet-G 0.1 μg/mouse, icy injection 24 hrs before MCAO, compared with 10 mg glucosamine/mouse i.p.): comparable elevation
- elevation of O-GlcNAcylation ([2]; thiamet-G initial dose 160 μg/mouse, 2 hrs after MCAO): > 6 fold
- infarct size / ischemia-induced brain damage [3]: more severe brain damage; also recorded: worsened
- infarct size ([3]; thiamet-G 0.1 μg/mouse, icy injection, MCAO 2 hrs, reperfusion 24 hrs): reduced
